Results on one compound are retold here after patent US11179363B2, “Non-steroidal selective glucocorticoid receptor agonistic modulators (SEGRAMs) and uses thereof” (ASSOCIATION POUR LA RECHERCHE À L'IGBMC (ARI), priority 2017, dated 2021).

Molecules are shown by their SMILES.

The test system of one data set is corneal epithelial cells. The note with it: in vitro; cited from earlier work.
Data set [1] concerns the target T1, glucocorticoid receptor (GR) (Mus musculus, UniProt P06537).
T1 construct: RNA transcripts were then extracted from mouse ears; from tissue; host or cells: ear skin of Balb/C mice (in vivo topical treatment)
T1 sequence (P06537 1-792): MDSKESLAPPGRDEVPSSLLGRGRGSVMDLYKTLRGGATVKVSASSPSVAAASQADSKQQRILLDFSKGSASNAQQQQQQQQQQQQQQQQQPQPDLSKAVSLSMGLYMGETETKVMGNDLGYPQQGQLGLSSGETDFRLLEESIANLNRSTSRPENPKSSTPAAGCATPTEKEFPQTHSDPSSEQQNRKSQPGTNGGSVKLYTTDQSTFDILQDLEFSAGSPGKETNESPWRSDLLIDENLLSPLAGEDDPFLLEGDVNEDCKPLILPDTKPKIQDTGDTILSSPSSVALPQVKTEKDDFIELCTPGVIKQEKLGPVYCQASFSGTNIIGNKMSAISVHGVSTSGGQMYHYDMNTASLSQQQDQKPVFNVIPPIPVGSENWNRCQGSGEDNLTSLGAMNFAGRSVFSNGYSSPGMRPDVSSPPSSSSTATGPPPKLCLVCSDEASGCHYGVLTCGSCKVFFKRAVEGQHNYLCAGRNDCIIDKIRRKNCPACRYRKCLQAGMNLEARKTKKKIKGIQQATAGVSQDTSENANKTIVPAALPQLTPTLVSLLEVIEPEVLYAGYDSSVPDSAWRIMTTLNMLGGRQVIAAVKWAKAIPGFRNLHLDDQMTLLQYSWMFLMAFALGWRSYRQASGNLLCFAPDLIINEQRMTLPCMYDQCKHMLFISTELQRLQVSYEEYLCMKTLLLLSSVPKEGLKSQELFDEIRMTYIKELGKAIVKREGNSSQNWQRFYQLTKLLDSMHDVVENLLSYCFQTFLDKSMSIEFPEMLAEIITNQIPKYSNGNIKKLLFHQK
As to the kind of experiment: In vivo transcriptional analysis (q-RT-PCR) of the three GR functions in mouse ears. The note with it: topical 18 hours, 1 nmole/cm^2. More on the design: species or system Balb/C mice. As for the experimental part: RNA transcripts were then extracted from mouse ears and the transcripts of 4 genes were analyzed by q-RT-PCR: • (i) the directly GR-transactivated gene of the mTOR inhibitor REDD1, • (ii) the GR-directly transrepressed gene of keratin 5 (K5) and • (iii) the GR-indirectly “tethered” transrepressed genes of interleukin-1β (IL-1β) and interleukin-6 (IL-6), both being activated in presence of 12-O-tetradecanoylphorbol-13-acetate (TPA). Results

Data set [2] has as its system experimental models of dry eye and postoperative inflammation. The note with it: in vivo, cited from earlier work.

In the case of `Cc1ccc2c(NC[C@](O)(CC(C)(C)c3cc(F)cc4c3OCC4)C(F)(F)F)cccc2n1` [Mapracorat], in the data set on corneal epithelial cells, the “anti-inflammatory action in corneal epithelial cells challenged with osmotic stress” value is “act as an anti-inflammatory agent”. Also, the “GR functions induced (direct transactivation, direct transrepression, indirect tethered transrepression)” value in data set [1] is recorded as “induces all three GR functions”. The “side effects in intraocular pressure and body weight” value in data set [2] (vs dexamethasone) is on record as “reduced side effects”. For the same compound, the “anti-inflammatory activity vs dexamethasone” value in data set [2] was “comparable”.
